{"source": "paper PMC9127750", "about": "“Structure-based design of CDC42 effector interaction inhibitors for the treatment of cancer” (Cell reports, 2022)", "tested_on": "WM3248 melanoma cells, 486 antibodies", "assay": "Reverse phase protein arrays (RPPA)", "format": "cell-based, Human", "details": "normalized to 0", "description": "Pellets were snap frozen in liquid nitrogen and shipped to MD Anderson Cancer Center core RPPA facility for RPPA analysis (Table S5). Three biological replicates for each sample were generated.\nNomenclatures on the RPPA heatmaps: name_of_antibody.species_of_antibody.status_of_antibody. V - antibody validated; C - validation of antibody in progress; Q - antibody nonspecific; E – under evaluation; antibodies raised in M - mouse, G - goat, R - rabbit, or T - rat.", "note": "“And” between values parts separate entries of the source, which are not always exact repeats. Identical values can stand only once."}
{"smiles": "CN(C)c1cccc(Nc2cc(-c3ccccc3)nc(C3CCNCC3)n2)c1", "note": "[ARN22089, N1,N1-dimethyl-N3-(6-phenyl-2-(piperidin-4-yl)pyrimidin-4-yl)benzene-1,3-diamine]", "values": [{"measurement": "GSK.3B.R.C Norm_10", "setting": "10, replicates 1-3", "result": "0.867 and 0.924 and 0.907"}, {"measurement": "GSK.3a.b.M.V Norm_10", "setting": "10, replicates 1-3", "result": "0.998 and 1.049"}, {"measurement": "GSK.3a.b_pS21_S9.R.V Norm_10", "setting": "10, replicates 1-3", "result": "1.903 and 0.801"}, {"measurement": "Gab2.R.V Norm_10", "setting": "10, replicates 1-3", "result": "1.165 and 1.098 and 0.933"}, {"measurement": "Gli1.R.C Norm_10", "setting": "10, replicates 1-3", "result": "0.913 and 0.965 and 1.136"}, {"measurement": "Gli3.R.C Norm_10", "setting": "10, replicates 1-3", "result": "1.151 and 1.082 and 1.169"}, {"measurement": "Glucocorticoid.Receptor.R.V Norm_10", "setting": "10, replicates 1-3", "result": "1.159 and 1.201 and 0.996"}, {"measurement": "Glutamate.D1.2.R.V Norm_10", "setting": "10, replicates 1-3", "result": "0.997 and 1.319 and 1.150"}, {"measurement": "Glutaminase.R.C Norm_10", "setting": "10, replicates 1-3", "result": "0.936 and 1.126 and 1.162"}, {"measurement": "Granzyme.B.R.V Norm_10", "setting": "10, replicates 1-3", "result": "1.207 and 0.777 and 0.921"}, {"measurement": "Grp75.R.C Norm_10", "setting": "10, replicates 1-3", "result": "1.100 and 1.356 and 0.930"}, {"measurement": "Gys.R.V Norm_10", "setting": "10, replicates 1-3", "result": "0.972 and 0.858 and 0.963"}, {"measurement": "Gys_pS641.R.V Norm_10", "setting": "10, replicates 1-3", "result": "0.959 and 0.885"}, {"measurement": "H2AX_pS139.R.C Norm_10", "setting": "10, replicates 1-3", "result": "0.952 and 0.894"}, {"measurement": "H2AX_pS140.M.C Norm_10", "setting": "10, replicates 1-3", "result": "0.944 and 1.316 and 1.153"}, {"measurement": "HER2.M.V Norm_10", "setting": "10, replicates 1-3", "result": "1.003 and 1.056"}, {"measurement": "HER2_pY1248.R.V Norm_10", "setting": "10, replicates 1-3", "result": "0.907 and 0.828 and 1.009"}, {"measurement": "HER3.R.V Norm_10", "setting": "10, replicates 1-3", "result": "0.945 and 1.026 and 0.936"}, {"measurement": "HER3_pY1289.R.C Norm_10", "setting": "10, replicates 1-3", "result": "1.083 and 1.014"}, {"measurement": "HES1.R.V Norm_10", "setting": "10, replicates 1-3", "result": "1.156 and 0.918 and 0.849"}, {"measurement": "Heregulin.R.V Norm_10", "setting": "10, replicates 1-3", "result": "0.988 and 0.972 and 0.854"}, {"measurement": "eEF2.R.C Norm_10", "setting": "10, replicates 1-3", "result": "1.541 and 1.276 and 1.659"}, {"measurement": "eEF2K.R.V Norm_10", "setting": "10, replicates 1-3", "result": "1.101 and 1.387 and 1.115"}, {"measurement": "eIF4E.R.V Norm_10", "setting": "10, replicates 1-3", "result": "1.636 and 0.500 and 0.846"}, {"measurement": "eIF4E_pS209.R.V Norm_10", "setting": "10, replicates 1-3", "result": "0.984 and 0.803"}, {"measurement": "eIF4G.R.C Norm_10", "setting": "10, replicates 1-3", "result": 0.963}, {"measurement": "DRP1.R.V Norm_20 Average", "setting": "20, average", "result": 0.964}, {"measurement": "DUSP4.R.V Norm_20 Average", "setting": "20, average", "result": 0.723}, {"measurement": "DUSP6.R.C Norm_20 Average", "setting": "20, average", "result": 1.555}, {"measurement": "Dvl3.R.V Norm_20 Average", "setting": "20, average", "result": 1.031}, {"measurement": "E2F1.R.V Norm_20 Average", "setting": "20, average", "result": 1.247}, {"measurement": "E.Cadherin.R.V Norm_20 Average", "setting": "20, average", "result": 0.854}, {"measurement": "EGFR.R.V Norm_20 Average", "setting": "20, average", "result": 1.132}, {"measurement": "EGFR_pY1068.R.C Norm_20 Average", "setting": "20, average", "result": 0.914}, {"measurement": "EGFR_pY1173.R.V Norm_20 Average", "setting": "20, average", "result": 1.048}, {"measurement": "EMA.M.C Norm_20 Average", "setting": "20, average", "result": 0.783}, {"measurement": "ENY2.M.C Norm_20 Average", "setting": "20, average", "result": 0.952}, {"measurement": "ER.a.R.V Norm_20 Average", "setting": "20, average", "result": 0.959}, {"measurement": "ER.a_pS118.R.V Norm_20 Average", "setting": "20, average", "result": 1.311}, {"measurement": "ERCC5.R.C Norm_20 Average", "setting": "20, average", "result": 1.110}, {"measurement": "ERRalpha.R.V Norm_20 Average", "setting": "20, average", "result": 0.963}, {"measurement": "EVI1.R.V Norm_20 Average", "setting": "20, average", "result": 0.976}, {"measurement": "Elk1_pS383.R.C Norm_20 Average", "setting": "20, average", "result": 1.105}, {"measurement": "Enolase.2.R.V Norm_20 Average", "setting": "20, average", "result": 0.948}, {"measurement": "EphA2.R.V Norm_20 Average", "setting": "20, average", "result": 0.748}, {"measurement": "EphA2_pS897.R.C Norm_20 Average", "setting": "20, average", "result": 0.630}, {"measurement": "EphA2_pY588.R.C Norm_20 Average", "setting": "20, average", "result": 0.974}, {"measurement": "Erk5.R.V Norm_20 Average", "setting": "20, average", "result": 0.917}, {"measurement": "Ets.1.R.V Norm_20 Average", "setting": "20, average", "result": 1.379}, {"measurement": "FABP5.R.C Norm_20 Average", "setting": "20, average", "result": 1.251}, {"measurement": "FAK.R.C Norm_20 Average", "setting": "20, average", "result": 0.978}, {"measurement": "FAK_pY397.R.V Norm_20 Average", "setting": "20, average", "result": 0.925}, {"measurement": "FANCD2.R.V Norm_20 Average", "setting": "20, average", "result": 0.851}, {"measurement": "FASN.R.V Norm_20 Average", "setting": "20, average", "result": 0.957}, {"measurement": "FGF.basic.R.C Norm_20 Average", "setting": "20, average", "result": 1.005}, {"measurement": "FN14.R.C Norm_20 Average", "setting": "20, average", "result": 1.106}, {"measurement": "FOXM1.R.V Norm_20 Average", "setting": "20, average", "result": 0.936}, {"measurement": "FRS2.alpha_pY196.R.V Norm_20 Average", "setting": "20, average", "result": 1.059}, {"measurement": "FTO.R.V Norm_20 Average", "setting": "20, average", "result": 1.058}, {"measurement": "Fibronectin.R.V Norm_20 Average", "setting": "20, average", "result": 1.193}, {"measurement": "FoxO3a_pS318_S321.R.C Norm_20 Average", "setting": "20, average", "result": 1.005}, {"measurement": "G6PD.R.V Norm_20 Average", "setting": "20, average", "result": 0.954}, {"measurement": "GATA3.M.V Norm_20 Average", "setting": "20, average", "result": 1.318}, {"measurement": "GATA6.R.V Norm_20 Average", "setting": "20, average", "result": 0.955}, {"measurement": "GCLC.R.C Norm_20 Average", "setting": "20, average", "result": 1.023}, {"measurement": "GCLM.R.V Norm_20 Average", "setting": "20, average", "result": 0.992}, {"measurement": "GCN5L2.R.V Norm_20 Average", "setting": "20, average", "result": 0.995}, {"measurement": "GGPS1.M.V Norm_20 Average", "setting": "20, average", "result": 1.022}, {"measurement": "GRB2.R.V Norm_20 Average", "setting": "20, average", "result": 0.934}, {"measurement": "GRB7.R.V Norm_20 Average", "setting": "20, average", "result": 0.995}, {"measurement": "GSK.3B.R.C Norm_20 Average", "setting": "20, average", "result": 0.882}, {"measurement": "GSK.3a.b.M.V Norm_20 Average", "setting": "20, average", "result": 0.925}, {"measurement": "GSK.3a.b_pS21_S9.R.V Norm_20 Average", "setting": "20, average", "result": 1.221}, {"measurement": "Gab2.R.V Norm_20 Average", "setting": "20, average", "result": 1.169}, {"measurement": "Gli3.R.C Norm_20 Average", "setting": "20, average", "result": 1.301}, {"measurement": "Glucocorticoid.Receptor.R.V Norm_20 Average", "setting": "20, average", "result": 1.170}, {"measurement": "Glutamate.D1.2.R.V Norm_20 Average", "setting": "20, average", "result": 1.186}, {"measurement": "Grp75.R.C Norm_20 Average", "setting": "20, average", "result": 1.195}, {"measurement": "Gys_pS641.R.V Norm_20 Average", "setting": "20, average", "result": 0.856}, {"measurement": "H2AX_pS139.R.C Norm_20 Average", "setting": "20, average", "result": 1.433}, {"measurement": "H2AX_pS140.M.C Norm_20 Average", "setting": "20, average", "result": 1.232}]}
